Among the data in ChEMBL document CHEMBL1795321, “Synthesis and in vitro evaluation of ambrisentan analogues as potential endothelin receptor antagonists” (Bioorg Med Chem Lett, 2011) are inhibition values, retold here.

Calls of active or inactive are those of the source. The calls are words filed in the database; no cut-off is given here.

This assay has as its target T1, Endothelin receptor type A (Oryctolagus cuniculus) (UniProt A5A8K3).
T1 sequence (whole entry): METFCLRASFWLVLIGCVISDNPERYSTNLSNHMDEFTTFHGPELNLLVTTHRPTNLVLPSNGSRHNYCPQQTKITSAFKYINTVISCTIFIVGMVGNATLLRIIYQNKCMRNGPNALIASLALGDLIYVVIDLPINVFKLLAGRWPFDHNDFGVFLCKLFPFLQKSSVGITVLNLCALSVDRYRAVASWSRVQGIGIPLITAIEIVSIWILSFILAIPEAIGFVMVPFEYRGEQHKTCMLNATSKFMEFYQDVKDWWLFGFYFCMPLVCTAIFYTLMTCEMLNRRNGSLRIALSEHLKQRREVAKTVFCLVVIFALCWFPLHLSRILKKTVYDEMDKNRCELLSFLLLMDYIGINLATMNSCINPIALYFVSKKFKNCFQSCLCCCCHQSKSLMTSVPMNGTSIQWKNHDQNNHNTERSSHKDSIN
The assay is described as follows: Inhibition of endothelin A receptor in New Zealand white rabbit aortic rings assessed as inhibition of endothelin-1-induced vascular contraction at 10^-6 M.
As usually defined, the inhibition is the drop in the measured response relative to a control, in per cent. Take `Cc1cc(C)nc(OC(C(=O)O)C(COC(=O)OCC(C)C)(c2ccccc2)c2ccccc2)n1` (stereo not drawn): the inhibition came to 13.7%.

For `Cc1cc(C)nc(OC2C(=O)OCC2(c2ccccc2)c2ccccc2)n1` (stereo not drawn), the inhibition came out at 14.3%.

Regarding `CCCCCC(=O)OCC(c1ccccc1)(c1ccccc1)C(Oc1nc(C)cc(C)n1)C(=O)O` (stereo not drawn), the inhibition result was “inactive”.

Turning to `CCCC(=O)OCC(c1ccccc1)(c1ccccc1)C(Oc1nc(C)cc(C)n1)C(=O)O` (stereo not drawn), the inhibition was 1.11%.

Turning to `CCC(=O)OCC(c1ccccc1)(c1ccccc1)C(Oc1nc(C)cc(C)n1)C(=O)O` (stereo not drawn), the inhibition was found to be 21.7%.

Consider `CCCOCC(c1ccccc1)(c1ccccc1)C(Oc1nc(C)cc(C)n1)C(=O)O` (stereo not drawn), for which the inhibition entry was “inactive”.

As for `Cc1cc(C)nc(OC(C(=O)O)C(Cc2ccccc2)(c2ccccc2)c2ccccc2)n1` (stereo not drawn), the inhibition turned out to be 11.8%.

`CCOC(=O)OCC(c1ccccc1)(c1ccccc1)C(Oc1nc(C)cc(C)n1)C(=O)O` (stereo not drawn): the inhibition stood at 15.5%.

As to `Cc1cc(C)nc(OC(C(=O)O)C(COCc2ccccc2)(c2ccccc2)c2ccccc2)n1` (stereo not drawn), the inhibition result was “inactive”.

As to `CCCCOCC(c1ccccc1)(c1ccccc1)C(Oc1nc(C)cc(C)n1)C(=O)O` (stereo not drawn), the inhibition turned out to be 15.1%.

For the compound `COC(=O)OCC(c1ccccc1)(c1ccccc1)C(Oc1nc(C)cc(C)n1)C(=O)O` (stereo not drawn), the inhibition was 3.4%.

Turning to `Cc1cc(C)nc(OC(C(=O)O)C(COC(=O)CCCC(=O)O)(c2ccccc2)c2ccccc2)n1` (stereo not drawn), the inhibition was determined as 3.47%.

Take `Cc1cc(C)nc(OC(C(=O)O)C(C#N)(c2ccccc2)c2ccccc2)n1` (racemic): the inhibition was 42.2%.

Regarding `Cc1cc(C)nc(OC(C(=O)O)C(COC(=O)OC(C)(C)C)(c2ccccc2)c2ccccc2)n1` (stereo not drawn), the inhibition result was “inactive”.

As for `CCC(C)(C)C(=O)OCC(c1ccccc1)(c1ccccc1)C(Oc1nc(C)cc(C)n1)C(=O)O` (stereo not drawn), the inhibition entry is “inactive”.

Consider `Cc1cc(C)nc(OC(C(=O)O)C(COC(=O)OC(C)C)(c2ccccc2)c2ccccc2)n1` (stereo not drawn), for which the inhibition turned out to be 22%.

Turning to `CCCCC(=O)OCC(c1ccccc1)(c1ccccc1)C(Oc1nc(C)cc(C)n1)C(=O)O` (stereo not drawn), the inhibition was determined as 5.88%.

On to `COCC(c1ccccc1)(c1ccccc1)C(Oc1nc(C)cc(C)n1)C(=O)O` (stereo not drawn), for which the inhibition entry is “inactive”.

Take `Cc1cc(C)nc(OC(C(=O)O)C(COC(=O)CC(C)C)(c2ccccc2)c2ccccc2)n1` (stereo not drawn): the inhibition is 21.8%.

With `C=CCOCC(c1ccccc1)(c1ccccc1)C(Oc1nc(C)cc(C)n1)C(=O)O` (stereo not drawn), the inhibition was determined as 23.4%.

With `Cc1cc(C)nc(OC(C(=O)O)C(COC(=O)Cc2ccccc2)(c2ccccc2)c2ccccc2)n1` (stereo not drawn), the inhibition entry was “inactive”.

For the compound `Cc1cc(C)nc(OC(C(=O)OCc2ccccc2)C(CO)(c2ccccc2)c2ccccc2)n1` (stereo not drawn), the inhibition entry was “inactive”.

On to `Cc1cc(C)nc(OC(C(=O)O)C(COC(=O)CCC(=O)O)(c2ccccc2)c2ccccc2)n1` (stereo not drawn), for which the inhibition result is “inactive”.

Regarding `Cc1cc(C)nc(OC(C(=O)O)C(COC(=O)c2ccncc2)(c2ccccc2)c2ccccc2)n1` (stereo not drawn), the inhibition worked out at 13.2%.

Turning to `CC(=O)OCC(c1ccccc1)(c1ccccc1)C(Oc1nc(C)cc(C)n1)C(=O)O` (stereo not drawn), the inhibition turned out to be 9.64%.

Turning to `Cc1cc(C)nc(OC(C(=O)O)C(COC(=O)CCc2ccccc2)(c2ccccc2)c2ccccc2)n1` (stereo not drawn), the inhibition result is “inactive”.

`Cc1cc(C)nc(OC(C(=O)O)C(COC(=O)C(C)(C)C)(c2ccccc2)c2ccccc2)n1` (stereo not drawn): the inhibition result is “inactive”.

Regarding `CCOCC(c1ccccc1)(c1ccccc1)C(Oc1nc(C)cc(C)n1)C(=O)O` (stereo not drawn), the inhibition came to 20.6%.

Consider `COC(c1ccccc1)(c1ccccc1)[C@H](Oc1nc(C)cc(C)n1)C(=O)O`, for which the inhibition was determined as 43.2%.

Consider `COc1ccc(C(=O)OCC(c2ccccc2)(c2ccccc2)C(Oc2nc(C)cc(C)n2)C(=O)O)cc1` (stereo not drawn), for which the inhibition entry was “inactive”.

For `Cc1ccc(S(=O)(=O)OCC(c2ccccc2)(c2ccccc2)C(Oc2nc(C)cc(C)n2)C(=O)O)cc1` (stereo not drawn), the inhibition result is “inactive”.

With `Cc1cc(C)nc(OC(C(=O)O)C(CO)(c2ccccc2)c2ccccc2)n1` (stereo not drawn), the inhibition came to 23.2%.

As for `Cc1cccc(C(=O)OCC(c2ccccc2)(c2ccccc2)C(Oc2nc(C)cc(C)n2)C(=O)O)c1` (stereo not drawn), the inhibition result was “inactive”.

Regarding `CCCCCCCC(=O)OCC(c1ccccc1)(c1ccccc1)C(Oc1nc(C)cc(C)n1)C(=O)O` (stereo not drawn), the inhibition is 5.61%.

Regarding `Cc1cc(C)nc(OC(C(=O)O)C(COC(=O)c2ccccc2)(c2ccccc2)c2ccccc2)n1` (stereo not drawn), the inhibition came to 8.09%.

`Cc1cc(C)nc(OC(C(=O)O)C(COC(=O)c2cccnc2)(c2ccccc2)c2ccccc2)n1` (stereo not drawn): the inhibition is 7.82%.

With `Cc1cc(C)nc(OC(C(=O)O)C(COC(=O)N(C)C)(c2ccccc2)c2ccccc2)n1` (stereo not drawn), the inhibition result was “inactive”.

In the case of `COc1ccccc1Oc1c(NS(=O)(=O)c2ccc(C(C)(C)C)cc2)nc(-c2ncccn2)nc1OCCO`, the inhibition was 22.5%.
